Molecular target: T1, hCRTH2 (Homo sapiens, UniProt Q9Y5Y4)
T1 construct: expressed in transfected cells; host or cells: HEK (human embryonic kidney) cells expressing hCRTH2; membrane preparation
T1 sequence (Q9Y5Y4 1-395): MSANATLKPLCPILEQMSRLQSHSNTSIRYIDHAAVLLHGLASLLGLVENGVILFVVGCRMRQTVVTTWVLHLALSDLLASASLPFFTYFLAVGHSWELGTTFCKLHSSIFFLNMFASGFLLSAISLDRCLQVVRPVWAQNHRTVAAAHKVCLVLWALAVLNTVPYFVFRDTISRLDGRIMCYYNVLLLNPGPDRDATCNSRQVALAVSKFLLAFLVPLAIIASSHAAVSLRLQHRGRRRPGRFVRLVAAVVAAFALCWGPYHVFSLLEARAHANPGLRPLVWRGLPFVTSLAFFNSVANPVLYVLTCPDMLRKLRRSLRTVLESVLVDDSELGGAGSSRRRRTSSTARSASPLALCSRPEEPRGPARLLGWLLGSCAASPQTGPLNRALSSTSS
Experiment: Radioligand binding assay ([3H]PGD2 competition, HEK-hCRTH2 membranes)
Details: [3H]PGD2 binding, rated A-E (Table A)
Summary of the method: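 HEK-hCRTH2 membranes, 8-20 μg; [3H]PGD2 3.0 nM; 50 mM Tris-HCl pH 7.4/1 mM EDTA/2 mM MnCl2; DMSO 1%; 60 min RT; NSB 10 μM PGD2; filtration, scintillation counting.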

Row | Structure (SMILES) | Ki [nM]
1 | O=C(O)CCCCc1nc2cc(C(=O)NCc3cc(Cl)cc(Cl)c3)ccc2nc1-c1ccc(F)cc1 [compound 108, 7-[[[(3,5-dichlorophenyl)methyl]amino]carbonyl]-3-(4-fluorophenyl)-2-quinoxalinepentanoic acid] | 2.1 to 20
2 | O=C(O)CCCCc1nc2cc(C(=O)NCc3ccc(C(F)(F)F)cc3)ccc2nc1-c1ccc(F)cc1 [compound 112] | 2.1 to 20
3 | COCCn1c(=O)n(C2CCN(C(=O)c3ccc4nc(-c5ccccc5)c(CCCCC(=O)O)nc4c3)CC2)c2ccccc21 [compound 113, 7-[[4-[2,3-dihydro-3-(2-methoxyethyl)-2-oxo-1H-benzimidazol-1-yl]-1 - piperidinyl]carbonyl]-3-phenyl-2-quinoxalinepentanoic acid] | 2.1 to 20
4 | CO/N=C(/c1ccccn1)C1CCN(C(=O)c2ccc3nc(-c4ccccc4)c(CCCCC(=O)O)nc3c2)CC1 [compound 114, 7-[[4-[(E)-(methoxyimino)-2-pyridinylmethyl]-1-piperidinyl]carbonyl]-3-phenyl-2-quinoxalinepentanoic acid] | 2.1 to 20
5 | O=C(O)CCCCc1nc2cc(C(=O)N3CCC(n4c(=O)[nH]c5ccccc54)CC3)ccc2nc1-c1ccccc1 [compound 117, 7-[[4-(2,3-dihydro-2-oxo-1H-benzimidazol-1-yl)-1-piperidinyl]carbonyl]-3-phenyl-2-quinoxalinepentanoic acid] | 2.1 to 20
6 | CS(=O)(=O)N1CC2(CCN(C(=O)c3ccc4nc(-c5ccccc5)c(CCCCC(=O)O)nc4c3)CC2)c2ccccc21 [compound 118, 7-[[1,2-dihydro-1-(methylsulfonyl)spiro[3H-indole-3,4′-piperidin]-1′-yl]carbonyl]-3-phenyl-2-quinoxalinepentanoic acid] | 2.1 to 20
7 | CN1C(=O)C2(CCN(C(=O)c3ccc4nc(-c5ccccc5)c(CCCCC(=O)O)nc4c3)CC2)c2ccccc21 [compound 119] | 2.1 to 20
8 | O=C(O)CCCCc1nc2cc(C(=O)N3CCC4(CC3)COc3ccccc34)ccc2nc1-c1ccccc1 [compound 120, 3-phenyl-7-(spiro[benzofuran-3(2H),4′-piperidin]-1′-ylcarbonyl)-2-quinoxalinepentanoic acid] | 2.1 to 20
9 | O=C(O)CCCCc1nc2cc(C(=O)N3CCC4(CCc5ccccc54)CC3)ccc2nc1-c1ccccc1 [compound 121, 7-[(2,3-dihydrospiro [1H-indene-1,4′-piperidin]-1′-yl)carbonyl]-3-phenyl-2-quinoxalinepentanoic acid] | 2.1 to 20
10 | CN1CC2(CCN(C(=O)c3ccc4nc(-c5ccccc5)c(CCCCC(=O)O)nc4c3)CC2)c2ccccc21 [compound 122, 7-[(1,2-dihydro-1-methylspiro[3H-indole-3,4′-piperidin]-1′-yl)carbonyl]-3-phenyl-2-quinoxalinepentanoic acid] | 2.1 to 20
11 | CC(=O)N1CC2(CCN(C(=O)c3ccc4nc(-c5ccccc5)c(CCCCC(=O)O)nc4c3)CC2)c2ccccc21 [compound 123, 7-[(1-acetyl-1,2-dihydrospiro[3H-indole-3,4′-piperidin]-1′-yl)carbonyl]-3-phenyl-2-quinoxalinepentanoic acid] | 2.1 to 20
12 | N#CC1(c2ccccc2)CCN(C(=O)c2ccc3nc(-c4ccccc4)c(CCCCC(=O)O)nc3c2)CC1 [compound 124, 7-[(4-cyano-4-phenyl-1-piperidinyl)carbonyl]-3-phenyl-2-quinolaxinepentanoic acid] | 2.1 to 20
13 | O=C(O)CCCCc1nc2cc(C(=O)N3CCC4(CC3)C(=O)NCN4c3ccccc3)ccc2nc1-c1ccccc1 [compound 125, 7-[(4-oxo-l-phenyl-1,3,8-triazaspiro[4.5]dec-8-yl)carbonyl]-3-phenyl-2-quinoxalinepentanoic acid] | 2.1 to 20
14 | O=C(O)CCCCc1nc2cc(C(=O)NCc3ccccc3)ccc2nc1-c1ccc(F)cc1 [compound 129, 3-(4-fluorophenyl)-7-[[(phenylmethyl)amino]carbonyl]-2-quinoxalinepentanoic acid] | 0.1 to 2
15 | C[C@@H](NC(=O)c1ccc2nc(-c3ccc(F)cc3)c(CCCCC(=O)O)nc2c1)c1ccccc1 [compound 132, 3-(4-fluorophenyl)-7-[[(1(R)-phenylethyl)amino]carbonyl]-2-quinoxalinepentanoic acid] | 2.1 to 20
16 | C[C@H](NC(=O)c1ccc2nc(-c3ccc(F)cc3)c(CCCCC(=O)O)nc2c1)c1ccccc1 [compound 133, 3-(4-fluorophenyl)-7-[[(1(S)-phenylethyl)amino]carbonyl]-2-quinoxalinepentanoic acid] | 2.1 to 20
17 | O=C(O)CCCCc1nc2cc(C(=O)N[C@H](c3ccccc3)C(F)(F)F)ccc2nc1-c1ccc(F)cc1 [compound 137, 3-(4-fluorophenyl)-7-[[[2,2,2-2-trifluoro-1(R)-phenylethyl)amino]carbonyl]-2-quinoxalinepentanoic acid] | 20.1 to 200
18 | O=C(O)CCCCc1nc2cc(C(=O)N[C@@H](c3ccc(F)cc3)C(F)(F)F)ccc2nc1-c1ccc(F)cc1 [compound 138, 3-(4-fluorophenyl)-7-[[[2,2,2-trifluoro-1(S)-(4-fluorophenyl)ethyl]amino]carbonyl]-2-quinoxalinepentanoic acid] | 2.1 to 20
19 | O=C(O)CCCCc1nc2cc(C(=O)N[C@H](c3ccc(F)cc3)C(F)(F)F)ccc2nc1-c1ccc(F)cc1 [compound 139, 3-(4-fluorophenyl)-7-[[[(1R)-2,2,2-trifluoro-1-(4-fluorophenyl)ethyl]amino]carbonyl]-2-quinoxalinepentanoic acid] | 2.1 to 20
20 | O=C(O)CCCCc1nc2cc(C(=O)N3CC[C@@H](c4ccccc4)C3)ccc2nc1-c1ccccc1 [compound 140, 3-phenyl-7-[(3(S)-phenyl-1-pyrrolidinyl)carbonyl]-2-quinoxalinepentanoic acid] | 0.1 to 2
21 | O=C(O)CCCCc1nc2cc(C(=O)N3CC[C@H](c4ccccc4)C3)ccc2nc1-c1ccccc1 [compound 141, 3-phenyl-7-[(3(R)-phenyl-1-pyyrolidinyl)carbonyl]-2-quinoxalinepentanoic acid] | 2.1 to 20
22 | O=C(O)CCCCc1nc2cc(C(=O)N3CCC[C@@H](c4ccccc4)C3)ccc2nc1-c1ccccc1 [compound 142, 3-phenyl-7-[(3(S)-phenyl-1-piperidinyl)carbonyl]-2-quinoxalinepentanoic acid] | 2.1 to 20

Now from value to compound:

Row | Ki [nM] | Structure (SMILES)
23 | 2.1 to 20 | O=C(O)CCCCc1nc2cc(C(=O)NCc3ccc(F)cc3)ccc2nc1-c1ccc(F)cc1 [compound 109, 3-(4-fluorophenyl)-7-[[[(4-fluorophenyl)methyl]amino]carbonyl]-2-quinoxalinepentanoic acid]
24 | 2.1 to 20 | C[C@@H](NC(=O)c1ccc2nc(-c3ccc(F)cc3)c(CCCCC(=O)O)nc2c1)c1ccc(F)cc1 [compound 110, 3-(4-fluorophenyl)-7-[[[1(R)-(4-fluorophenyl)ethyl]amino]carbonyl]-2-quinoxalinepentanoic acid]
25 | 2.1 to 20 | C[C@H](NC(=O)c1ccc2nc(-c3ccc(F)cc3)c(CCCCC(=O)O)nc2c1)c1ccc(F)cc1 [compound 111, 3-(4-fluorophenyl)-7-[[[1(S)-(4-fluorophenyl)ethyl]amino]carbonyl]-2-quinoxalinepentanoic acid]
26 | 2.1 to 20 | O=C(O)CCCCc1nc2cc(C(=O)N3CC=C(c4ccccc4)CC3)ccc2nc1-c1ccccc1 [compound 116, 7-(4-phenyl-1,2,3,6-tetrahydropyridine-1-carbonyl)-3-phenyl-2-quinoxalinepentanoic acid]
27 | 2.1 to 20 | O=C(O)CCCCc1nc2cc(C(=O)N3CCC4(CC3)C(=O)NCN4c3ccccc3)ccc2nc1-c1ccc(F)cc1 [compound 126, 3-(4-fluorophenyl)-7-[(4-oxo-1-phenyl-1,3,8-triazaspiro[4.5]dec-8-yl)carbonyl]-2-quinoxalinepentanoic acid]
28 | 2.1 to 20 | O=C(O)CCCCc1nc2cc(C(=O)N3CC=C(c4ccccc4)CC3)ccc2nc1-c1ccc(F)cc1 [compound 127, 5-(3-(4-fluorophenyl)-7-(4-phenyl-1,2,3,6-tetrahydropyridine-1-carbonyl)quinoxalin-2-yl)pentanoic acid]
29 | 2.1 to 20 | N#CC1(c2ccccc2)CCN(C(=O)c2ccc3nc(-c4ccc(F)cc4)c(CCCCC(=O)O)nc3c2)CC1 [compound 128]
30 | 0.1 to 2 | C[C@@H](NC(=O)c1ccc2nc(-c3ccc(F)cc3)c(CCCCC(=O)O)nc2c1)c1ccc(Cl)cc1 [compound 130, 7-[[[1(R)-(4-chlorophenyl)ethyl]amino]carbonyl]-3-(4-fluorophenyl)-2-quinoxalinepentanoic acid]
31 | 2.1 to 20 | C[C@H](NC(=O)c1ccc2nc(-c3ccc(F)cc3)c(CCCCC(=O)O)nc2c1)c1ccc(Cl)cc1 [compound 131, 7-[[[1(S)-(4-chlorophenyl)ethyl]amino]carbonyl]-3-(4-fluorophenyl)-2-quinoxalinepentanoic acid]
32 | 0.1 to 2 | O=C(O)CCCCc1nc2cc(C(=O)N3CCC(O)(c4ccc(Cl)cc4)CC3)ccc2nc1-c1ccc(F)cc1 [compound 134, 7-[[4-(4-chlorophenyl)-4-hydroxy-1-piperidinyl]carbonyl]-3-(4-fluorophenyl)-2-quinoxalinepentanoic acid]
33 | 2.1 to 20 | O=C(O)CCCCc1nc2cc(C(=O)N3CCC(c4ccc(Cl)cc4)CC3)ccc2nc1-c1ccc(F)cc1 [compound 135]
34 | 2.1 to 20 | O=C(O)CCCCc1nc2cc(C(=O)N3CC=C(c4ccc(Cl)cc4)CC3)ccc2nc1-c1ccc(F)cc1 [compound 136, 7-[[4-(4-chlorophenyl)-3,6-dihydro-1(2H)-pyridinyl]carbonyl]-3-(4-fluorophenyl)-2-quinoxalinepentanoic acid]

— patent US9469615B2, “Quinoxalines and AZA-quinoxalines as CRTH2 receptor modulators” (Merck Sharp & Dohme Corp., priority 2010, dated 2016)
